From US20170188607A1, “SOLUBILIZATION OF A SWEET MODULATOR AND FLAVOR” (Firmenich SA, priority 2014, published 2017)

Assay: Amount of compound remaining in solution in acidic syrup kept at 3° C., measured by UV spectroscopy as a function of time
Type: physicochemical
Experimental: A concentrated solution 1 of (S)-1-(3-(((4-amino-2,2-dioxido-1H-benzo[c][1,2,6]thiadiazin-5-yl)oxy)methyl)piperidin-1-yl)-3-methylbutan-1-one at 0.3% (w/w) (3000 ppm) was prepared in water. pH was adjusted to 11 using NaOH to form (S)-1-(3-(((4-amino-2,2-dioxido-1H-benzo[c][1,2,6]thiadiazin-5-yl)oxy)methyl)piperidin-1-yl)-3-methylbutan-1-one sodium salt and obtain an homogeneous solution. Next, a syrup was prepared by mixing an aqueous solution of High Fructose Corn Syrup (HFCS), citric acid and deionized water. The final syrup contained 34% fructose, 0.68% citric acid, 0.1% sodium citrate and 65.22% water, with a pH of 2. […] The sample was kept at 3° C. and the amount of (S)-1-(3-(((4-amino-2,2-dioxido-1H-benzo[c][1,2,6]thiadiazin-5-yl)oxy)methyl)piperidin-1-yl)-3-methylbutan-1-one was measured by UV spectroscopy as a function of time. The amount of (S)-1-(3-(((4-amino-2,2-dioxido-1H-benzo[c][1,2,6]thiadiazin-5-yl)oxy)methyl)piperidin-1-yl)-3-methylbutan-1-one was reduced to 28 ppm after 1 week and first crystals were visually observed. After 12 weeks 1.7 ppm of (S)-1-(3-(((4-amino-2,2-dioxido-1H-benzo[c][1,2,6]thiadiazin-5-yl)oxy)methyl)piperidin-1-yl)-3-methylbutan-1-one remained in solution.
(§1) A concentrated solution 1 of (S)-1-(3-(((4-amino-2,2-dioxido-1H-benzo[c][1,2,6]thiadiazin-5-yl)oxy)methyl)piperidin-1-yl)-3-methylbutan-1-one at 0.3% (w/w) (3000 ppm) was prepared in water. pH was adjusted to 11 using NaOH to form (S)-1-(3-(((4-amino-2,2-dioxido-1H-benzo[c][1,2,6]thiadiazin-5-yl)oxy)methyl)piperidin-1-yl)-3-methylbutan-1-one sodium salt and obtain an homogeneous solution. Next, a syrup was prepared by mixing an aqueous solution of HFCS, citric acid, PVP 55k and deionized water. The final syrup contained 34% fructose, 0.68% citric acid, 0.1% sodium citrate, 0.03% PVP and 65.19% water. […] The sample was kept at 3° C. and the amount of (S)-1-(3-(((4-amino-2,2-dioxido-1H-benzo[c][1,2,6]thiadiazin-5-yl)oxy)methyl)piperidin-1-yl)-3-methylbutan-1-one was measured by UV spectroscopy as a function of time. The amount of (S)-1-(3-(((4-amino-2,2-dioxido-1H-benzo[c][1,2,6]thiadiazin-5-yl)oxy)methyl)piperidin-1-yl)-3-methylbutan-1-one was maintained at 30 ppm for 4 weeks, before a slight decrease and appearance of few crystals. After 12 weeks 9.6 ppm of (S)-1-(3-(((4-amino-2,2-dioxido-1H-benzo[c][1,2,6]thiadiazin-5-yl)oxy)methyl)piperidin-1-yl)-3-methylbutan-1-one remained in solution.
as §1, with “PVP 55k, maltodextrin (18DE)” for “PVP 55k”, “fructose, 15% maltodextrin,” for “fructose,”, “for 8” for “for 4”, “crystals.” for “crystals. After 12 weeks 9.6 ppm of (S)-1-(3-(((4-amino-2,2-dioxido-1H-benzo[c][1,2,6]thiadiazin-5-yl)oxy)methyl)piperidin-1-yl)-3-methylbutan-1-one remained in solution.”
A concentrated solution 1 of (S)-1-(3-(((4-amino-2,2-dioxido-1H-benzo[c][1,2,6]thiadiazin-5-yl)oxy)methyl)piperidin-1-yl)-3-methylbutan-1-one at 0.3% (w/w) (3000 ppm) was prepared in water. pH was adjusted to 11 using NaOH to form (S)-1-(3-(((4-amino-2,2-dioxido-1H-benzo[c][1,2,6]thiadiazin-5-yl)oxy)methyl)piperidin-1-yl)-3-methylbutan-1-one sodium salt and obtain an homogeneous solution. […]

SMILES: CC(C)CC(=O)N1CCC[C@H](COc2cccc3c2C(N)=NS(=O)(=O)N3)C1 [(S)-1-(3-(((4-amino-2,2-dioxido-1H-benzo[c][1,2,6]thiadiazin-5-yl)oxy)methyl)piperidin-1-yl)-3-methylbutan-1-one]
- amount remaining in solution (Example 1 (comparative): 30 ppm start, syrup 34 Brix (34% fructose, 0.68% citric acid, 0.1% sodium citrate), pH 2, no polymer, 3° C., after 1 week, first crystals visually observed): 28 ppm
- amount remaining in solution (Example 1 (comparative): 30 ppm start, syrup 34 Brix, pH 2, no polymer, 3° C., after 12 weeks): 1.7 ppm
- amount remaining in solution (Example 2: 30 ppm start, syrup 34 Brix with 0.03% PVP 55k, 3° C., after 12 weeks): 9.6 ppm
- amount maintained in solution (Example 2: 30 ppm start, syrup 34 Brix with 0.03% PVP 55k, 3° C., maintained for 4 weeks, then slight decrease and few crystals): 30 ppm
- amount remaining in solution (Example 3: 30 ppm start, syrup 34 Brix with 0.03% PVP 55k and 15% maltodextrin (18DE), 3° C., after 12 weeks): 27.3 ppm
- amount maintained in solution (Example 3: 30 ppm start, syrup 34 Brix with 0.03% PVP 55k and 15% maltodextrin (18DE), 3° C., maintained for 8 weeks, then slight decrease and few crystals): 30 ppm
- amount maintained in solution (Example 4: 30 ppm start, syrup 34 Brix with 0.03% HPMC (22 kDa), 3° C., maintained for 12 weeks): 30 ppm
- amount remaining in solution (Example 10 (comparative): 18 ppm start, syrup 45 Brix, pH 2, no polymer, 3° C., after 7 weeks, first crystals visually observed): 15.8 ppm
- amount remaining in solution (Example 10 (comparative): 18 ppm start, syrup 45 Brix, pH 2, no polymer, 3° C., after 14 weeks): 3.6 ppm
- amount maintained in solution (Example 11: 18 ppm start, syrup 45 Brix with 0.0009% HPMC (Methocel K99), pH 2, 3° C., maintained for 17 weeks): 18 ppm
- amount maintained in solution (Example 12: 18 ppm start, syrup 45 Brix with 0.0009% CMC, pH 2, 3° C., maintained for 16 weeks): 18 ppm
- amount remaining in solution (Example 13 (comparative): 18 ppm start, syrup 20 Brix, pH 2, no polymer, 3° C., after 3.5 weeks, crystals visually observed): 14 ppm
- amount remaining in solution (Example 13 (comparative): 18 ppm start, syrup 20 Brix, pH 2, no polymer, 3° C., after 18 weeks): 4 ppm
- amount maintained in solution (Example 14: 18 ppm start, syrup 20 Brix with 0.0009% HPMC (Methocel K99), pH 2, 3° C., maintained for 18 weeks): 18 ppm
